In the NIST ThermoML archive (doi:10.1021/je501085y):
Numbers after ± are expanded uncertainties.

Legend:
[1] = 293.15 K; 101.33 kPa; Liquid; Vibrating tube method
[2] = refractive index (Na D-line) (dimensionless); details: 293.15 K; 101.33 kPa; Liquid; Standard Abbe refractometry

SMILES | mass density [1] [kg/m3] | refractive index [2]
COC1CCCC1 [methoxycyclopentane] | 860.43 ± 0.12 | 1.4187 ± 0.0007
C=CC(=O)O [propenoic acid] | 1051.22 ± 0.1 | 1.4223 ± 0.0007
